ChEMBL document CHEMBL1201862, “PubChem BioAssay data set” (2004)
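How tested: cells in 96-well plates exposed to compound for 48 hours at five concentrations. GI50 marks 50% less growth.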 Calls of active or inactive are those of the source. Rule as the data show it: active = GI50 up to about 1.1 µM and inactive = higher.

Experiments:
Experiment in all cases: NCI tumour cell line growth inhibition, 48 h
786-0 = system: 786-0
A549 = system: A549
ACHN = system: ACHN
CAKI-1 = system: CAKI-1
DLD-1 = system: DLD-1
EKVX = system: EKVX
HCT-15 = system: HCT-15
HOP-62 = system: HOP-62
KM-20L2 = system: KM-20L2
KM12 = system: KM12
LOX IMVI = system: LOX IMVI
M14 = system: M14
M19-MEL = system: M19-MEL
NCI-H226 = system: NCI-H226
NCI-H23 = system: NCI-H23
NCI-H460 = system: NCI-H460
OVCAR-4 = system: OVCAR-4
OVCAR-5 = system: OVCAR-5
OVCAR-8 = system: OVCAR-8
RPMI-8226 = system: RPMI-8226
RXF 393 = system: RXF 393
SF-268 = system: SF-268
SF-295 = system: SF-295
SF-539 = system: SF-539
SK-OV-3 = system: SK-OV-3
SN12C = system: SN12C
SNB-19 = system: SNB-19
SW-620 = system: SW-620
TK-10 = system: TK-10
U-251 = system: U-251
UACC-257 = system: UACC-257
UACC-62 = system: UACC-62
UO-31 = system: UO-31
A498 = system: A498
BT-549 = system: BT-549
CCRF-CEM = system: CCRF-CEM
COLO 205 = system: COLO 205
DMS-114 = system: DMS-114
DMS-273 = system: DMS-273
DU-145 = system: DU-145
HCC 2998 = system: HCC 2998
HCT-116 = system: HCT-116
HL-60 = system: HL-60
HOP-18 = system: HOP-18
HOP-92 = system: HOP-92
HT-29 = system: HT-29
Hs-578T = system: Hs-578T
IGROV-1 = system: IGROV-1
K562 = system: K562
MCF7 = system: MCF7
MDA-MB-231 = system: MDA-MB-231
MDA-MB-435 = system: MDA-MB-435
MDA-N = system: MDA-N
MOLT-4 = system: MOLT-4
Malme-3M = system: Malme-3M
NCI-H522 = system: NCI-H522
NCI/ADR-RES = system: NCI/ADR-RES
OVCAR-3 = system: OVCAR-3
PC-3 = system: PC-3
SK-MEL-28 = system: SK-MEL-28
SK-MEL-2 = system: SK-MEL-2
SK-MEL-5 = system: SK-MEL-5
SR = system: SR
T47D = system: T47D

Measured: GI50

C/C(=N\NC(=O)c1cccnc1)c1cccc(/C(C)=N/NC(=O)c2cccnc2)n1.CC(=O)[O-].CC(=O)[O-].[Zn+2]
active: OVCAR-4 0.504 µM | SF-268 0.668 µM | U-251 1.03 µM
inactive: 786-0 4.43 µM | A549 3.91 µM | ACHN 1.52 µM | CAKI-1 2.64 µM | DLD-1 1.68 µM | EKVX 2.86 µM | HOP-62 1.45 µM | KM-20L2 1.67 µM | KM12 3.3 µM | LOX IMVI 1.62 µM | M14 4.46 µM | M19-MEL 8.45 µM | NCI-H226 2.31 µM | NCI-H23 4.01 µM | NCI-H460 4.31 µM | OVCAR-5 4.13 µM | OVCAR-8 1.62 µM | RPMI-8226 6.21 µM | RXF 393 3.01 µM | SF-295 2.74 µM | SF-539 1.57 µM | SK-OV-3 2.22 µM | SN12C 4.9 µM | SNB-19 2.86 µM | SW-620 3.54 µM | TK-10 5.65 µM | UACC-257 5.41 µM | UACC-62 2.25 µM | UO-31 2.72 µM
2.26 µM: HCT-15

OCC1CCC(n2cnc3c(O)ncnc32)O1 (configuration not stated)
> 100 µM: HCT-15
inactive: 786-0 > 1000 µM | A498 > 92 µM | A549 > 100 µM | ACHN > 1000 µM | BT-549 > 1000 µM | CAKI-1 > 100 µM | CCRF-CEM > 100 µM | COLO 205 > 100 µM | DLD-1 > 100 µM | DMS-114 > 100 µM | DMS-273 > 100 µM | DU-145 > 1000 µM | EKVX > 100 µM | HCC 2998 > 100 µM | HCT-116 > 100 µM | HL-60 > 100 µM | HOP-18 > 100 µM | HOP-62 > 100 µM | HOP-92 > 100 µM | HT-29 > 100 µM | Hs-578T > 1000 µM | IGROV-1 > 100 µM | K562 > 100 µM | KM-20L2 > 100 µM | KM12 > 100 µM | LOX IMVI > 100 µM | M14 > 1000 µM | M19-MEL > 100 µM | MCF7 > 100 µM | MDA-MB-231 > 1000 µM | MDA-MB-435 > 1000 µM | MDA-N > 1000 µM | MOLT-4 > 100 µM | Malme-3M > 100 µM | NCI-H226 > 100 µM | NCI-H23 > 100 µM | NCI-H460 > 100 µM | NCI-H522 > 100 µM | NCI/ADR-RES > 100 µM | OVCAR-3 > 100 µM | OVCAR-4 > 100 µM | OVCAR-5 > 100 µM | OVCAR-8 > 100 µM | PC-3 > 1000 µM | RPMI-8226 > 100 µM | RXF 393 > 100 µM | SK-MEL-28 > 100 µM | SK-MEL-2 > 100 µM | SK-MEL-5 > 100 µM | SK-OV-3 > 100 µM | SN12C > 100 µM | SR > 1000 µM | SW-620 > 100 µM | T47D > 1000 µM | TK-10 > 1000 µM | UACC-257 > 87.9 µM | UACC-62 > 100 µM | UO-31 502 µM
